IC50 data for 20 compounds are collected here from US11040981B2, “Pyrrolotriazine compounds and methods of inhibiting TAM kinases” (Syros Pharmaceuticals, Inc., priority 2017, dated 2021).

By IC50 is commonly meant the concentration that gives 50% inhibition. A high value points to weaker potency in that assay.

One experiment concerns the target T1, AXL (Homo sapiens, UniProt P30530).
T1 sequence (P30530 26-894): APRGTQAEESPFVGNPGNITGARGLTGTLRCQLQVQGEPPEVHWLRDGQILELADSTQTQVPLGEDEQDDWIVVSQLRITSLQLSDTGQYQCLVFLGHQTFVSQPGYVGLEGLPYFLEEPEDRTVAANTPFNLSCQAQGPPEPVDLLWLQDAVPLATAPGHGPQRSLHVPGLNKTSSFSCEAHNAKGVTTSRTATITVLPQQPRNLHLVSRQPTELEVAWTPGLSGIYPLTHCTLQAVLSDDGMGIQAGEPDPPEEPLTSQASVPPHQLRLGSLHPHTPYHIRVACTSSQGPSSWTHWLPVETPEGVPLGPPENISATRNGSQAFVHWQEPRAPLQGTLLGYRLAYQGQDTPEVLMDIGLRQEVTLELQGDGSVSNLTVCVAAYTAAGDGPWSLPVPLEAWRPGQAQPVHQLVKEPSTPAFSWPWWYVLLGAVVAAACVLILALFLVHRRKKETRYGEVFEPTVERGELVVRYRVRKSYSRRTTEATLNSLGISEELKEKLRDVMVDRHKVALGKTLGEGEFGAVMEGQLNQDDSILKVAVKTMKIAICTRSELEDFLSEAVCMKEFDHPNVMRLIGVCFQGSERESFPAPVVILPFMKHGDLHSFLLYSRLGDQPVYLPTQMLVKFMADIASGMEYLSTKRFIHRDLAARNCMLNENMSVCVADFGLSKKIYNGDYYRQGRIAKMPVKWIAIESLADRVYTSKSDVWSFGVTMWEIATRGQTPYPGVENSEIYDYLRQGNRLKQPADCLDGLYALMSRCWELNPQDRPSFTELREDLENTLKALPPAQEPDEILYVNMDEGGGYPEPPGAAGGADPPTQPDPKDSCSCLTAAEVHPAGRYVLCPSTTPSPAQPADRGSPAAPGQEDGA
Kind of experiment: TR-FRET kinase activity assay, AXL. To be noted: ATP at Km, 60 minutes. Format: biochemical. In outline: (§1)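 Each kinase phosphorylated a fluorescent-labelled tyrosine peptide in 50 mM HEPES pH 7.5, 10 mM MgCl2, 1 mM EGTA, 0.01% Brij 35, 1 mM DTT at RT, with ATP at Km for that enzyme. After 60 min, EDTA quench and Eu-anti-phosphotyrosine antibody (30 min, dark); IC50 from TR-FRET decrease.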
On the technique in general: In TR-FRET formats the signal depends on donor and acceptor labels being close together.

A further experiment concerns the target T2, TYRO3 (Homo sapiens, UniProt Q06418).
T2 sequence (Q06418 41-890): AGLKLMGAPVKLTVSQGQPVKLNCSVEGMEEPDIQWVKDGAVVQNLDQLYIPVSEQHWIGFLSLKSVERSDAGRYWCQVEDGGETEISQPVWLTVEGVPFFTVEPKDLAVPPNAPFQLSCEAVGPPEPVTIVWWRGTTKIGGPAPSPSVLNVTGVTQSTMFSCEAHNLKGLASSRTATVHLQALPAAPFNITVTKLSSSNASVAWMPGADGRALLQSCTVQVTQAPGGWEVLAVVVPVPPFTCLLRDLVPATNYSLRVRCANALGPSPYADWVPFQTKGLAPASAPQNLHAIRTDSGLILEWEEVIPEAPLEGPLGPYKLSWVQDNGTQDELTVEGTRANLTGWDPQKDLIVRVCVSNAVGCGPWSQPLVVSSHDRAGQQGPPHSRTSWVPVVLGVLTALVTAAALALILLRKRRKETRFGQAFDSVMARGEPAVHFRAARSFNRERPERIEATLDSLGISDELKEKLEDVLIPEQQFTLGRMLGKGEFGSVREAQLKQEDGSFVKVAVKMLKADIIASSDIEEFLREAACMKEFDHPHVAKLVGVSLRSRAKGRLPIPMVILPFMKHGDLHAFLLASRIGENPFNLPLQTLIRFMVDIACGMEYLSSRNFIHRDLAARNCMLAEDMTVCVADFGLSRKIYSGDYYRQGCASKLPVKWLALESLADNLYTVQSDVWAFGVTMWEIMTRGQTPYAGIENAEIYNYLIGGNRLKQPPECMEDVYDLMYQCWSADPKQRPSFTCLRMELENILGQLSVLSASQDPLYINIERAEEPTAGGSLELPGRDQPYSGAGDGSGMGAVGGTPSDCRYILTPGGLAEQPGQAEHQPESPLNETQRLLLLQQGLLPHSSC
The experiment in a line: TR-FRET kinase activity assay, TYRO3. In kind it is biochemical. To be noted: ATP at Km, 60 minutes. Put shortly: as §1

In the case of `C[C@@H](COC(F)F)Nc1ncc2c(-c3cnn(C(C)(C)C(=O)N4CC5(COC5)C4)c3)cc([C@H]3CC[C@H](O)CC3)n2n1` [Compound 613], the half-inhibitory concentration (IC50) on AXL and against TYRO3 was at most 100 nM throughout.
For the compound `COC[C@H](C)Nc1ncc2c(-c3ccnc(C)c3)cc([C@H]3CC[C@@H](O)CC3)n2n1` [Compound 183], the results for the half-inhibitory concentration (IC50) on AXL and at TYRO3 were 100 to 1000 nM and at most 100 nM, respectively.
The like results for `COC[C@H](C)Nc1ncc2c(-c3ccc([C@@H](C)N4CCOCC4)cc3)cc([C@H]3CC[C@H](O)CC3)n2n1` [Compound 156] were, in that order, at most 100 nM and at most 100 nM.
The like results for `COC[C@H](C)Nc1ncc2c(-c3cnn(C4CCOCC4)c3)cc([C@H]3CC[C@H](O)CC3)n2n1` [Compound 151] were, in that order, 100 to 1000 nM and at most 100 nM.
The like results for `C[C@@H](CC(F)(F)F)Nc1ncc2c(-c3cnn(C(C)(C)C(=O)C4COC4)c3)cc([C@H]3CC[C@@](C)(O)CC3)n2n1` [Compound 609] were, in that order, at most 100 nM and at most 100 nM.
As to `C[C@@H](COC(F)F)Nc1ncc2c(-c3ccnc(N4CCOC(C(C)(C)O)C4)c3)cc([C@H]3CC[C@H](O)CC3)n2n1` (stereo partly shown) [Compound 598], the 50% inhibitory concentration (IC50) on AXL and against TYRO3 was at most 100 nM each time.
As to `COC[C@H](C)Nc1ncc2c(-c3cnn(C(C)(C)c4nnc(N5CCOCC5)o4)c3)cc(C3CCC(O)CC3)n2n1` (stereo partly shown) [Compound 631], the IC50 on AXL and against TYRO3 was at most 100 nM each time.
Regarding `COC[C@H](C)Nc1ncc2c(-c3ccnc(C)c3)cc([C@H]3CC[C@H](O)CC3)n2n1` [Compound 146], the figures for the IC50 on AXL and at TYRO3 were 100 to 1000 nM and at most 100 nM, respectively.
For `COC[C@H](C)Nc1ncc2c(-c3cnn(C(C)(C)C(=O)N4CCCC(C)(O)C4)c3)cc([C@H]3CC[C@H](O)CC3)n2n1` (stereo partly shown) [Compound 621] the same measures were at most 100 nM and at most 100 nM.
For `COC[C@H](C)Nc1ncc2c(-c3ccc(C#N)c(F)c3)cc([C@H]3CC[C@H](O)CC3)n2n1` [Compound 169], the IC50 at AXL and against TYRO3 was at most 100 nM each time.
In the case of `COC[C@H](C)Nc1ncc2c(N3CC4(COC4)CC3=O)cc([C@H]3CC[C@H](O)CC3)n2n1` [Compound 178], the IC50 on AXL lay in the range of 1000 to 10000 nM; at TYRO3 it was 100 to 1000 nM.
The like results for `COC[C@H](C)Nc1ncc2c(-c3ccc(C(=O)N4CCN(C)CC4)cc3)cc([C@H]3CC[C@H](O)CC3)n2n1` [Compound 144] were, in that order, at most 100 nM and at most 100 nM.
The like results for `COCC(C)Nc1ncc2c(-c3ccc(C(C)N4CCOCC4)cc3)cc(C3CCC(O)CC3)n2n1` (stereo not shown) [Compound 181] were, in that order, 100 to 1000 nM and at most 100 nM.
For the compound `COC[C@H](C)Nc1ncc2c(-c3cnccc3C)cc([C@H]3CC[C@H](O)CC3)n2n1` [Compound 168], the half-maximal inhibitory concentration (IC50) on AXL was in the range of 1000 to 10000 nM; against TYRO3, 100 to 1000 nM.
`COC[C@H](C)Nc1ncc2c(-c3cnn(C(C)(C)c4ncc(C)o4)c3)cc(C3CCC(O)CC3)n2n1` (stereo partly shown) [Compound 628]: the IC50 on AXL and against TYRO3 was at most 100 nM in each case.
With `COC[C@H](C)Nc1ncc2c(-c3cnn(C4COC4)c3)cc([C@H]3CC[C@](O)(C(C)C)CC3)n2n1` [Compound 617], the 50% inhibitory concentration (IC50) at AXL and at TYRO3 was at most 100 nM in each case.
Turning to `COC[C@H](C)Nc1ncc2c(-c3ccc(C4(C(=O)O)CC4)cc3)cc([C@H]3CC[C@H](O)CC3)n2n1` [Compound 173], the half-maximal inhibitory concentration (IC50) against AXL and at TYRO3 was at most 100 nM in each case.
Take `COC[C@H](C)Nc1ncc2c(-c3ccnc(N4CC(C)(O)C4)c3)cc(C3CCC(O)CC3)n2n1` (stereo partly shown) [Compound 632]: the IC50 against AXL and against TYRO3 was at most 100 nM in each case.
Consider `COC[C@H](C)Nc1ncc2c(-c3ccc(CN4CCN(C(C)=O)CC4)cc3)cc([C@H]3CC[C@H](O)CC3)n2n1` [Compound 150], for which the IC50 at AXL and against TYRO3 was at most 100 nM throughout.
As for `COC[C@H](C)Nc1ncc2c(-c3cnn(C(C)(C)c4nnc(C)s4)c3)cc([C@H]3CC[C@H](O)CC3)n2n1` [Compound 625], the IC50 against AXL and against TYRO3 was at most 100 nM each time.
